27 compounds from BindingDB's records for PubMed 8102785 (University of Pennsylvania, 1993) can be followed below.

The target in the experiment is Somatostatin receptor type 4 (Rattus norvegicus, UniProt P30937).

Molecules are shown by their SMILES. *1 amine or outer side, *2 acyl side, *3 side chain or, on linkers, in order; H or OH if unused. Where a SMILES comes first, the peptide text is derived from it. Bridges are numbered along the chain shown (N, C = ends). [ ]: non-standard residue; d: D form. The star is where a group is joined. ξ: configuration not given here. Phe(4-NO2) = N[C@@H](Cc1ccc([N+](=O)[O-])cc1)C(=O)O; X3 = C[C@@H](C(=O)[*:2])N(Cc1ccc2ccccc2c1)[*:1]; NH(1-naphthylmethyl) = c1ccc2c(CN*)cccc2c1; Phe(4-Cl) = N[C@@H](Cc1ccc(Cl)cc1)C(=O)O; dPhe(4-Cl) = N[C@H](Cc1ccc(Cl)cc1)C(=O)O; 1Nal = N[C@@H](Cc1cccc2ccccc12)C(=O)O; 2Nal = N[C@@H](Cc1ccc2ccccc2c1)C(=O)O; d1Nal = N[C@H](Cc1cccc2ccccc12)C(=O)O; d2Nal = N[C@H](Cc1ccc2ccccc2c1)C(=O)O; dThr(3ξ) = CC(O)[C@@H](N)C(=O)O; X1 = O=C(C(N[*:1])S[*:3])[*:2]; Thr(3ξ) = CC(O)[C@H](N)C(=O)O; NMeA = CN[C@@H](C)C(=O)O; ξF = NC(Cc1ccccc1)C(=O)O; Abu = CC[C@H](N)C(=O)O; X2 = CC(O)[C@H](CO)N*; Ahp = NCCCCCCC(=O)O; ξC = NC(CS)C(=O)O; Mpa = O=C(O)CCS

Chain of Somatostatin receptor type 4 (P30937 whole entry): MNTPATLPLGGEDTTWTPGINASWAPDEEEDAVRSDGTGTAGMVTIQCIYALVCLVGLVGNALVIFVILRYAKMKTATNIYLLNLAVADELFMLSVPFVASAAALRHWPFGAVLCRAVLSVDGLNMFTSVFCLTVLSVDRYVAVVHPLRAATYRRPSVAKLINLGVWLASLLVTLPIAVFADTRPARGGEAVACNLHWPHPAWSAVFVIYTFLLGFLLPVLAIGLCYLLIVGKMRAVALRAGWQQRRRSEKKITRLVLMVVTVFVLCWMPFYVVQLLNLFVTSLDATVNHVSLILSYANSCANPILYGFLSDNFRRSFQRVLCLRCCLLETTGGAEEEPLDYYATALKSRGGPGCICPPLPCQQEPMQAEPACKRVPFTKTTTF

The Ki is the dissociation constant of the complex between target and ligand, obtained from inhibition or displacement. A low value points to higher affinity. With `CC(C)[C@@H]1NC(=O)[C@@H](CCCCN)NC(=O)[C@@H](Cc2c[nH]c3ccccc23)NC(=O)[C@@H](Cc2ccc(O)cc2)NC(=O)[C@@H](C)N(C)C(=O)[C@@H](Cc2ccccc2)NC1=O`, the affinity, expressed as Ki, was 26 nM. `CC(O)[C@H](CO)NC(=O)[C@@H]1CSSCC(NC(=O)C(N)Cc2ccccc2)C(=O)N[C@H](Cc2ccccc2)C(=O)N[C@H](Cc2c[nH]c3ccccc23)C(=O)N[C@H](CCCCN)C(=O)N[C@H](C(C)O)C(=O)N1` (some centres not stated) (H-[ξF][ξC][dF][dW][dK][dThr(3ξ)]C-X2; disulfide 2-7) gave a Ki of 0.57 nM. The compound `C[C@@H](O)[C@@H]1NC(=O)[C@H](CCCCN)NC(=O)[C@@H](Cc2c[nH]c3ccccc23)NC(=O)[C@H](Cc2ccccc2)NC(=O)[C@@H]2CCCN2C(=O)[C@H](Cc2ccccc2)NC1=O` (cyclo(PF[dW]KTF)) showed a Ki of 3.2 nM. With `CC(C)[C@@H]1NC(=O)[C@H](CCCCN)NC(=O)[C@@H](Cc2c[nH]c3ccccc23)NC(=O)[C@H](Cc2ccc(O)cc2)NC(=O)[C@@H](NC(=O)[C@H](N)Cc2ccc3ccccc3c2)CSSC[C@@H](C(=O)N[C@H](C(N)=O)[C@@H](C)O)NC1=O` [3-(2-Naphtyl)-D-Ala-L-Cys(1)-L-Tyr-D-Trp-L-Lys-L-Val-L-Cys(1)-L-Thr-NH2], the Ki was determined as 0.1 nM. Take `C[C@@H](O)[C@@H]1NC(=O)[C@H](CCCCN)NC(=O)[C@@H](Cc2c[nH]c3ccccc23)NC(=O)[C@H](Cc2ccccc2)NC(=O)[C@@H]2CSSCC(NC1=O)C(=O)NCCCCCCC(=O)N2` [(1R,4S,7S,10R,13S,16R)-4-[(R)-1-Hydroxyethyl]-7-(4-aminobutyl)-10-(1H-indole-3-ylmethyl)-13-benzyl-28,29-dithia-2,5,8,11,14,17,25-heptaazabicyclo[14.10.4]triacontane-3,6,9,12,15,18,26-heptone] (cyclo([Ahp]CF[dW]KT[ξC]); disulfide 2-7): the affinity corresponds to a Ki of 1.2 nM. `CC1NC(=O)C(CCCCN)NC(=O)C(Cc2c[nH]c3ccccc23)NC(=O)C(Cc2ccc(O)cc2)NC(=O)C(NC(=O)C(N)Cc2ccccc2)CSSCC(C(=O)NCc2cccc3ccccc23)NC1=O` (configuration not stated) [BIM 23034] (H-FCYWKAC-{NH(1-naphthylmethyl)}; disulfide 2-7; configuration not given here) returned a Ki of 0.19 nM.

On to `CC(C)[C@@H]1NC(=O)[C@H](CCCCN)NC(=O)[C@@H](Cc2c[nH]c3ccccc23)NC(=O)[C@H](Cc2ccc(O)cc2)NC(=O)[C@@H](NC(=O)[C@H](N)Cc2ccc3ccccc3c2)CSSC[C@@H](C(=O)N[C@@H](Cc2ccc3ccccc3c2)C(N)=O)NC1=O` [BIM 23042] (H-[d2Nal]CY[dW]KVC[2Nal]-NH2; disulfide 2-7), for which the affinity, expressed as Ki, was 5.2 nM. This Ki is about 27-fold higher than that of the compound before. In turn, `CC(O)[C@H](NC(=O)[C@H](CCCCN)NC(=O)[C@@H](Cc1c[nH]c2ccccc12)NC(=O)[C@H](Cc1ccccc1)NC(=O)[C@@H](C)NC(=O)[C@@H](N)Cc1ccccc1)C(=O)N[C@@H](C)C(=O)N[C@H](C(N)=O)[C@@H](C)O` (some centres not stated) [BIM 23051] (H-F[dA]F[dW]K[Thr(3ξ)]AT-NH2) came in with a Ki of 53 nM.

`CC(C)[C@H](NC(=O)[C@H](CCCCN)NC(=O)[C@@H](Cc1c[nH]c2ccccc12)NC(=O)[C@H](Cc1ccc(O)cc1)NC(=O)[C@H](Cc1ccccc1)NC(=O)[C@H](N)Cc1ccccc1)C(=O)N[C@@H](Cc1ccccc1)C(=O)N[C@H](Cc1cccc2ccccc12)C(N)=O` [BIM 23056] (H-[dF]FY[dW]KVF[d1Nal]-NH2): the affinity corresponds to a Ki of 43 nM. The Ki values of the last two compounds are within 1.5-fold of each other. Then `CC(C)[C@H](NC(=O)[C@H](CCCCN)NC(=O)[C@@H](Cc1c[nH]c2ccccc12)NC(=O)[C@H](Cc1ccc(O)cc1)NC(=O)[C@H](Cc1ccc(Cl)cc1)NC(=O)[C@H](N)Cc1ccccc1)C(=O)N[C@@H](Cc1ccccc1)C(=O)N[C@H](C(N)=O)[C@@H](C)O` [BIM 23057] (H-[dF][Phe(4-Cl)]Y[dW]KVFT-NH2), with 8.1 nM. `CC(O)C1NC(=O)C(CCCCN)NC(=O)C(Cc2c[nH]c3ccccc23)NC(=O)C(Cc2ccc(O)cc2)NC(=O)C(NC(=O)C(N)Cc2ccccc2)CSSCC(C(=O)NCc2cccc3ccccc23)NC1=O` (configuration not stated) [BIM 23060] (H-FCYWKTC-{NH(1-naphthylmethyl)}; disulfide 2-7; configuration not given here): the affinity corresponds to a Ki of 0.09 nM.

Compound `CC(C)[C@H](NC(=O)[C@H](CCCCN)NC(=O)[C@@H](Cc1c[nH]c2ccccc12)NC(=O)[C@H](Cc1ccc(O)cc1)NC(=O)[C@H](Cc1ccc(Cl)cc1)NC(=O)[C@@H](N)Cc1ccccc1)C(=O)N[C@@H](Cc1ccccc1)C(=O)N[C@@H](Cc1ccc2ccccc2c1)C(N)=O` [BIM 23063] (H-F[Phe(4-Cl)]Y[dW]KVF[2Nal]-NH2) registered a Ki of 43 nM. With `CC(C)[C@H](NC(=O)[C@H](CCCCN)NC(=O)[C@@H](Cc1c[nH]c2ccccc12)NC(=O)[C@H](Cc1ccc(O)cc1)NC(=O)[C@H](Cc1ccc(Cl)cc1)NC(=O)[C@@H](N)Cc1ccccc1)C(=O)N[C@@H](Cc1ccccc1)C(=O)N[C@H](C)C(N)=O` [BIM 23064] (H-F[Phe(4-Cl)]Y[dW]KVF[dA]-NH2), the Ki is 17 nM. Under `CC(C)[C@H](NC(=O)[C@H](CCCCN)NC(=O)[C@@H](Cc1c[nH]c2ccccc12)NC(=O)[C@H](Cc1ccc(O)cc1)NC(=O)[C@H](Cc1ccc([N+](=O)[O-])cc1)NC(=O)[C@H](N)Cc1ccccc1)C(=O)N[C@@H](Cc1ccccc1)C(=O)N[C@H](C(N)=O)[C@@H](C)O` [BIM 23066] (H-[dF][Phe(4-NO2)]Y[dW]KVFT-NH2) stands 2.4 nM; under `CC[C@H](NC(=O)[C@@H](N)Cc1ccc(Cl)cc1)C(=O)N[C@@H](Cc1ccc(O)cc1)C(=O)N[C@H](Cc1c[nH]c2ccccc12)C(=O)N[C@@H](CCCCN)C(=O)N[C@H](C(=O)N[C@@H](C)C(=O)N[C@H](Cc1ccccc1)C(N)=O)C(C)C` [BIM 23067] (H-[Phe(4-Cl)][Abu]Y[dW]KVA[dF]-NH2), 15 nM.

Take `C[C@@H](O)[C@H](NC(=O)[C@H](Cc1ccccc1)NC(=O)[C@@H](NC(=O)[C@H](CCCCN)NC(=O)[C@@H](Cc1c[nH]c2ccccc12)NC(=O)[C@H](Cc1ccc(O)cc1)NC(=O)[C@H](Cc1ccc(Cl)cc1)NC(=O)[C@H](N)Cc1ccccc1)[C@@H](C)O)C(N)=O` [BIM 23068] (H-[dF][Phe(4-Cl)]Y[dW]KTFT-NH2): the affinity, expressed as Ki, was 1.1 nM. Then `CC(O)[C@H](NC(=O)[C@H](CCCCN)NC(=O)[C@@H](Cc1c[nH]c2ccccc12)NC(=O)[C@H](Cc1ccc(O)cc1)NC(=O)[C@@H](C)NC(=O)[C@@H](N)Cc1ccccc1)C(=O)N[C@@H](C)C(=O)N[C@@H](Cc1cccc2ccccc12)C(N)=O` (some centres not stated) [BIM 23070] (H-F[dA]Y[dW]K[Thr(3ξ)]A[1Nal]-NH2), with 10 nM. In turn, `CC[C@@H]1NC(=O)[C@H](CCCCN)NC(=O)[C@@H](Cc2c[nH]c3ccccc23)NC(=O)[C@H](Cc2ccc(O)cc2)NC(=O)[C@H](C)N(C)C(=O)[C@H](Cc2ccccc2)NC1=O` [BIM-23027] (cyclo([Abu]F[NMeA]Y[dW]K)) yielded a Ki of 6.2 nM. The compound `CC(C)[C@H](NC(=O)[C@H](CCCCN)NC(=O)[C@@H](Cc1c[nH]c2ccccc12)NC(=O)[C@H](Cc1ccc(O)cc1)NC(=O)[C@H](Cc1ccccc1)NC(=O)[C@@H](N)Cc1ccccc1)C(=O)N[C@@H](Cc1ccccc1)C(=O)N[C@H](C(N)=O)[C@@H](C)O` [BIM-23058] (H-FFY[dW]KVFT-NH2) showed a Ki of 1.2 nM. `CC(C)[C@@H]1NC(=O)[C@H](CCCCN)NC(=O)[C@@H](Cc2c[nH]c3ccccc23)NC(=O)[C@H](Cc2ccc(O)cc2)NC(=O)CCSSC(C(=O)N[C@@H](Cc2ccccc2)C(N)=O)NC1=O` (some centres not stated) [CAS_117580-24-2] ([Mpa]Y[dW]KV[X1]F-NH2; disulfide 1-6) registered a Ki of 3.9 nM.

Compound `C[C@@H](O)[C@H](NC(=O)[C@H](Cc1ccccc1)NC(=O)[C@@H](NC(=O)[C@H](CCCCN)NC(=O)[C@@H](Cc1c[nH]c2ccccc12)NC(=O)[C@H](Cc1ccccc1)NC(=O)[C@H](Cc1ccccc1)NC(=O)[C@H](N)Cc1ccccc1)[C@@H](C)O)C(N)=O` [CAS_133073-82-2] (H-[dF]FF[dW]KTFT-NH2) displayed an inhibition constant (Ki) of 0.002 nM. Compared with the last compound, the Ki is about 2000-fold lower.

In turn, `C[C@@H](O)[C@H](NC(=O)[C@H](Cc1ccccc1)NC(=O)[C@@H](NC(=O)[C@H](CCCCN)NC(=O)[C@@H](Cc1c[nH]c2ccccc12)NC(=O)[C@H](Cc1ccc(O)cc1)NC(=O)[C@H](Cc1ccc(Cl)cc1)NC(=O)[C@H](N)Cc1ccc2ccccc2c1)[C@@H](C)O)C(N)=O` [CAS_150155-63-8] (H-[d2Nal][Phe(4-Cl)]Y[dW]KTFT-NH2) displayed a Ki of 9.5 nM.

As for `CC(C)[C@H](NC(=O)[C@H](CCCCN)NC(=O)[C@@H](Cc1c[nH]c2ccccc12)NC(=O)[C@H](Cc1ccc(O)cc1)NC(=O)[C@H](C)NC(=O)[C@H](N)Cc1ccc(Cl)cc1)C(=O)N[C@@H](C)C(=O)N[C@@H](Cc1ccc2ccccc2c1)C(N)=O` [CAS_150155-67-2] (H-[dPhe(4-Cl)]AY[dW]KVA[2Nal]-NH2), the affinity, expressed as Ki, was 14 nM. Compound `CC(C)C1NC(=O)C(CCCCN)NC(=O)C(Cc2c[nH]c3ccccc23)NC(=O)C(Cc2ccc(O)cc2)NC(=O)C(C)N(C)C(=O)C(Cc2ccccc2)NC1=O` (configuration not stated) [CAS_3086456] registered a Ki of 5.5 nM. Compound `CC(C)[C@H](NC(=O)[C@H](CCCCN)NC(=O)[C@@H](Cc1c[nH]c2ccccc12)NC(=O)[C@H](Cc1ccc(O)cc1)NC(=O)[C@H](C)NCc1ccc2ccccc2c1)C(=O)N[C@@H](C)C(=O)N[C@H](C(N)=O)[C@@H](C)O` [D-Nal-Ala-Tyr-D-Trp-Lys-Val-Ala-Thr-NH2] (H-[X3]Y[dW]KVAT-NH2) had a Ki of 146 nM. Consider `C[C@@H](O)[C@H](NC(=O)[C@@H]1CSSC[C@H](NC(=O)[C@H](N)Cc2ccc3ccccc3c2)C(=O)N[C@@H](Cc2ccc(O)cc2)C(=O)N[C@H](Cc2c[nH]c3ccccc23)C(=O)N[C@@H](CCCCN)C(=O)N[C@@H]([C@@H](C)O)C(=O)N1)C(N)=O` [D-Nal-c[Cys-Tyr-D-Trp-Lys-Thr-Cys]-Thr-NH2], for which the affinity, expressed as Ki, was 0.08 nM. As to `CC(C)[C@H](NC(=O)[C@H](CCCCN)NC(=O)[C@@H](Cc1c[nH]c2ccccc12)NC(=O)[C@H](Cc1ccc(O)cc1)NC(=O)[C@H](C)NC(=O)[C@H](N)Cc1ccccc1)C(=O)N[C@@H](C)C(=O)N[C@H](Cc1ccc2ccccc2c1)C(N)=O` [D-Phe-AIa-Tyr-D-Trp-Lys-Val-Ala-D-Nal-NH2] (H-[dF]AY[dW]KVA[d2Nal]-NH2), the Ki turned out to be 5.9 nM.
